Experiments:
[1] = system: wild-type (PI3Kβ^+/+/neuT) tumor derived mammary gland cancer cells; experiment: Proliferation curves of cultured tumor derived mammary gland cancer cells; type: cell-based, mouse; settings: wild-type tumor cells (FIG. 10)
Procedure: FIG. 10. Requirement of PI3Kβ for cell proliferation of tumor derived mammary gland cancer cell lines. Proliferation curves of cultured tumor cells of the two genotypes in the absence or presence of TGX-155 (10 μM) and TGX-221 (100 nM)p110β selective inhibitors. Statistical significance: wild-type cells vs all other conditions; other pairs of datasets: n.s.
Moreover, to further test if the protection against breast cancer development was intrinsic to the lack of the kinase activity, tumor cells from PI3Kβ^KR/KR and PI3Kβ^+/+ mice were cultured in the presence of p110β selective inhibitors, TGX-155 and TGX-221.

[2] = system: PI3Kβ^+/+ MEFs; experiment: Proliferation curve of mouse embryonic fibroblasts (MEFs) with p110β inhibitors; type: cell-based
Procedure: FIG. 3. PI3Kβ^KR expression dosage inversely correlates with phenotype severity. a) MEFs were derived from normal (PI3Kβ^KR/KR(High)) or abnormal PI3Kβ^KR/KR (Low)) embryos and the expression level of the PI3Kβ^KR/KR protein was analyzed by SDS-PAGE and immunoblotting, using the indicated antibodies. b) analysis of p110β catalytic activity. Lipid kinase assay was performed on p110β immunoprecipitated from wild type (PI3Kβ^+/+) and PI3Kβ^KR/KR(High) MEFs. c) proliferation curve of mutant MEFs with high and low PI3Kβ^KR expression levels compared to that of wild-type MEFs with or without 100 nM TGX-221 treatment (TGX).
Since p110β is activated downstream growth factor receptors, and cell growth is the driving force during embryonic development, the present inventors analyzed cell proliferation of PI3Kβ^KR/KR(High), PI3Kβ^KR/KR(Low) and PI3Kβ^+/+ MEFs.

[3] = system: Akt/PKB phosphorylation in liver; experiment: Insulin-stimulated Akt phosphorylation in liver of treated mice; type: in vivo, mouse
Procedure: FIG. 5. After insulin stimulation, Akt phosphorylation declines in PI3Kβ^KR/KR liver faster than controls. Phosphorylation of Erk1/2 and Akt (on Thr308 and Ser473) in livers of mice of the given genotype with and without TGX-155 treatment. Lower panel: quantification of Akt phosphorylation on Ser473 (n=5)
To test this hypothesis, Akt/PKB phosphorylation was tested in wild-type and mutant mice in tissues known to be particularly sensitive to insulin signaling like the liver.

Structure (SMILES) | proliferation of wild-type tumor cells ([1]; TGX-155 10 μM) | growth rate (cell proliferation) of MEFs ([2]; PI3Kβ^+/+ MEFs treated with TGX-155, versus controls) | Akt phosphorylation after 5 minutes of insulin stimulation ([3]; liver of wild type mice treated with TGX-155, 5 minutes of insulin stimulation (FIG. 5)) | decline of Akt activation after insulin stimulation ([3]; liver, later time of insulin stimulation, versus untreated wild-type controls (FIG. 5)) | proliferation of wild-type tumor cells ([1]; TGX-221 100 nM) | growth rate (cell proliferation) of MEFs ([2]; PI3Kβ^+/+ MEFs, 100 nM TGX-221, versus controls (FIG. 3c))
Cc1cc(F)ccc1Oc1cccc2c(=O)cc(N3CCOCC3)[nH]c12 [TGX-155] | significant reduction in proliferation | growth rate comparable to that of the controls | no differences in Akt phosphorylation | declined significantly faster | – | –
Cc1cc(C(C)Nc2ccccc2)c2nc(N3CCOCC3)cc(=O)n2c1 (stereo not drawn) [TGX-221] | – | – | – | – | significant reduction in proliferation | growth rate comparable to that of the controls

— patent publication US8105796B2, “Regulation of expression of PI3Kβ protein in tumors” (Universita' Degli Studi di Torino, priority 2007, dated 2012)
